Where two headings read alike, the source gives them in different places.
How the values were obtained:
[1] = biological target: T1, LAT1 (Mus musculus, UniProt Q9Z127); test: Concentration-dependent cellular uptake into BV2 cells, Eadie–Hofstee analysis, Transport Type 1 (LAT1); type: cell-based; details: for Km / Transport Type 1 (LAT1) Vmax: 1–200 µM, 30 min, BV2, Eadie–Hofstee, mean ± SD, n = 3; for Cellular uptake: BV2 cells
Procedure, shortened: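 Mouse BV2 microglia incubated 30 min at 37 °C in HBSS with compounds at 1–200 μM. Intracellular compound quantified by LC-MS/MS (positive ESI, C18 column) and normalized to total protein. Transport components resolved from Michaelis-Menten kinetics by Eadie–Hofstee analysis.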

[2] = biological target: T1, LAT1; test: Cellular uptake of compounds in the presence of LAT1-inhibitor (KMH-233); type: cell-based; details: 100 µM compound, 100 µM KMH-233, 30 min, BV2
Procedure, shortened: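 Cells were pre-exposed 10 min to 100 µM KMH-233, then incubated 30 min in HBSS with 100 µM compound plus inhibitor. Intracellular compound was quantified by LC-MS against a spiked standard curve and normalised to protein.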

[3] = Time-dependent cellular uptake of compounds into BV2 cells (LC-MS/MS); type: cell-based, mouse; details: mouse, BV2 microglia cells, 100 µM compound, 1–60 min, mean ± SD, n = 3, read-out: T½ of cellular uptake
Procedure, shortened: (§1)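 BV2 cells were incubated with 100 μM compound in HBSS at 37 °C for 1–60 min, washed ice-cold and lysed in 0.1 M NaOH. Intracellular compound was quantified by positive-mode ESI LC-MS/MS against internal-standard calibration curves and normalised to Bradford protein content.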

[4] = test system: immortalized mouse microglia (BV2); test: as above; type: cell-based; details: for Max. cellular uptake: 100 µM compound, 1–60 min, mean ± SD, n = 3
Procedure, shortened: as §1

[5] = biological target: T1, LAT1; test: Cis-inhibition of radiolabelled LAT1-probe substrate uptake into BV2 cells; type: cell-based; details: for IC50: 5 min, mean ± SD; for Inhibition of LAT1-probe substrate uptake / LAT1 affinity: over all probe substrates
Procedure, shortened: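 Mouse BV2 cells preincubated 10 min at 37 °C in choline-based HBSS pH 7.4, then 5 min uptake of [14C]-L-leucine (0.2 µCi/mL) or [3H]-methionine, -tryptophan or -kynurenine (2 µCi/mL) with 0.1–1000 μM compound. Cell radioactivity counted by liquid scintillation after lysis. IC50 by nonlinear regression.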

[6] = test system: Transport Type 2; test: Concentration-dependent cellular uptake into BV2 cells, Eadie–Hofstee analysis, Transport Type 2; type: cell-based, mouse; details: 1–200 µM, 30 min, mean ± SD, n = 3
Description: For the concentration-dependent cellular uptake experiments, the BV2 cells on 24-well plates were incubated with studied compounds (1–200 μM) in pre-warmed HBSS buffer (250 μL) at 37 °C for 30 min. The experiment was then carried out as described for the time-dependent uptake above and the concentration of studied compounds in the cell lysate was analyzed by the LC-MS/MS methods described above and the results were normalized to the total protein concentration. The distinct transport mechanisms were separated from the Michaelis-Menten kinetics by using Eadie–Hofstee plot.
The studied compounds (1–15) were analyzed by using Agilent 1200 Series Rapid Resolution LC System together with an Agilent 6410 Triple Quadrupole Mass Spectrometer equipped with an electrospray ionization source (Agilent Technologies, Santa Clara, CA, USA). The chromatographic separations of analytes were achieved by using a reversed-phase Zobrax SB-C18 column (50 mm × 2.1 mm, 1.8 μm; Agilent Technologies, Santa Clara, CA, USA) by eluting the samples with 0.1% formic acid in water (A) and 0.1% formic in ACN (B). Labetalol and diclofenac were used as internal standards (ISTD) for the prodrugs and parent drugs, respectively. The transitions used for the quantification at the positive ion mode and chromatographic conditions of each compound and their parent drugs are listed in Table S1. The methods of compounds 1–11 have been reported earlier, while the methods of compounds 12–15 are reported herein for the first time.

[7] = test system: immortalized mouse microglia (BV2 cells); test: Cellular viability (resazurin / Alamar blue); type: cell-based; details: 72 h
Description: Immortalized microglia (BV2 cells) were seeded at the density of 10 × 10^3 cells/well onto collagen-coated 96-well plates. The cells were used for the proliferation experiments one day after seeding. The studied compounds (50 and 100 µM) were added into the growth medium and incubated for 3 days (the medium was replaced with a fresh one with studied compounds after daily measurements). Each day the cell viability was determined by the resazurin cell proliferation kit (MilliporeSigma, St. Louis, MO, USA), which is directly proportional to aerobic respiration and cellular metabolism of cells. The samples were measured fluorometrically by monitoring the increase in fluorescence at λex 560 nm and λem 590 nm with the Envision plate reader (EnVision, Perkin Elmer, Inc., Waltham, MA, USA). The cell viability was also followed by visualizing the wells with microscopy. The ability of compounds to inhibit the viability of the cells was expressed as percentages (%) compared to the untreated controls.

[8] = probe [3H]-L-Kynu, n = 3–4, read-out: IC50 of [3H]-L-Kynu uptake
[9] = probe [3H]-L-Met, n = 3–4, read-out: IC50 of [3H]-L-Met uptake
[10] = probe [3H]-L-Trp, n = 3–4, read-out: IC50 of [3H]-L-Trp uptake
[11] = probe [14C]-L-Leu, n = 3–4, read-out: IC50 of [14C]-L-Leu uptake
[12] = higher concentrations (>100 µM)

T1 sequence (Q9Z127 whole entry): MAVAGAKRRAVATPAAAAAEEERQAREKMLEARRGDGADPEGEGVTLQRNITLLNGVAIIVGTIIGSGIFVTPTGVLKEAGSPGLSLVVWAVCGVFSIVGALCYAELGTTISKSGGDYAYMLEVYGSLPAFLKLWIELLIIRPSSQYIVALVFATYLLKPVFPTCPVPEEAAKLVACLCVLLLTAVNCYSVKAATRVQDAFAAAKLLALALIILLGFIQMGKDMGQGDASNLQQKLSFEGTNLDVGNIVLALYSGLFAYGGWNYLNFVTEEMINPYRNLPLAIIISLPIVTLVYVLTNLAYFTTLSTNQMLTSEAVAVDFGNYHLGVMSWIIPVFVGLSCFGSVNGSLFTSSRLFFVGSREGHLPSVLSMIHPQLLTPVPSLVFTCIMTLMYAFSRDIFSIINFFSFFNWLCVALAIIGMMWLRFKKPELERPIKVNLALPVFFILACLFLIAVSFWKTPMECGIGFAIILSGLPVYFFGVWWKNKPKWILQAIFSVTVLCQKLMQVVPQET
T1 sequence (P10852 whole entry partner): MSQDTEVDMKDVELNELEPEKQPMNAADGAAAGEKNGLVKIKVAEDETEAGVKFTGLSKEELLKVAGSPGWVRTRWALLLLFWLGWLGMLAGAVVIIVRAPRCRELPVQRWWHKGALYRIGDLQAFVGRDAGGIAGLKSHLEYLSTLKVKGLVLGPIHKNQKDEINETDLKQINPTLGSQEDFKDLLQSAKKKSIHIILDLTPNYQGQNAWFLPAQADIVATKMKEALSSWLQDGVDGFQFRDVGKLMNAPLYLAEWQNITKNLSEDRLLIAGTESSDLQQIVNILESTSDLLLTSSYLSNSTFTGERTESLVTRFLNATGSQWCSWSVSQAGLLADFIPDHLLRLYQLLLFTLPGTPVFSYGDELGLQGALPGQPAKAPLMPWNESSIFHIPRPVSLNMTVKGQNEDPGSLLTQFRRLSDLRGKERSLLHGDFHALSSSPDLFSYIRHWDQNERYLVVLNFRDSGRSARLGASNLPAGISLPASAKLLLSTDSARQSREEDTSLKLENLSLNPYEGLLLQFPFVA

SMILES	Km [1] [µM]	Transport Type 1 (LAT1) Vmax [1] [pmol/mg/min]	Cellular uptake [1]	Cellular uptake in the presence of LAT1-inhibitor [2]	half-life at 100 μM [3] [min]	Max. cellular uptake [4]	IC50 [5, 8] [µM]	IC50 [5, 9] [µM]	IC50 [5, 10] [µM]	IC50 [5, 11] [µM]	Km [6] [µM]	Transport Type 2 Vmax [6] [pmol/mg/min]	Effect on cell viability [7, 12]	LAT1-substrate or LAT1-binder ([4]; concluded from time-dependent uptake, 100 µM)	Inhibition of LAT1-probe substrate uptake / LAT1 affinity [5]	Effect on cell viability ([7]; 50 µM)
NC(Cc1cccc(C(=O)Oc2ccc(-c3ccc(-c4ccc5c(c4)COC5=O)s3)cc2)c1)C(=O)O (stereo not shown) [Compound 1]	116 ± 72	750 ± 435	highest cellular uptake	inhibited significantly	9.11 ± 1.52	176.0 ± 9.0 nmol/mg of protein	0.7 ± 0.1	8.2 ± 1.7	6.7 ± 1.6	6.8 ± 1.4	347 ± 26	5067 ± 327	started to impact the cell viability	–	–	–
C[C@H](C(=O)Nc1cccc(C[C@H](N)C(=O)O)c1)c1cccc(C(=O)c2ccccc2)c1 [Compound 2]	0.8 ± 0.1	0.09 ± 0.01	–	inhibited significantly	1.97 ± 0.66	22.31 ± 1.34 nmol/mg of protein	4.3 ± 1.3	3.3 ± 1.5	9.9 ± 1.3	2.8 ± 1.5	199 ± 50	0.88 ± 0.16	started to impact the cell viability	–	–	–
C[C@H](C(=O)Oc1cccc(C[C@H](N)C(=O)O)c1)c1cccc(C(=O)c2ccccc2)c1 [Compound 4]	41 ± 6	88 ± 9	effectively transported into the cells	inhibited significantly	1.86 ± 0.42	4.17 ± 0.19 nmol/mg of protein	35.3 ± 1.2	26.1 ± 1.4	38.8 ± 3.1	15 ± 1.3	159 ± 45	231 ± 40	started to impact the cell viability	–	–	–
COc1cc(C=CC(=O)NCc2cccc(CC(N)C(=O)O)c2)ccc1O (stereo not shown) [Compound 5]	2.1 ± 0.4	0.11 ± 0.01	–	only reductive trends were seen	< 1	cannot be calculated	43.3 ± 1.1	> 100	> 100	> 100	77 ± 13	0.27 ± 0.02	–	LAT1-binders rather than substrates	not able to inhibit the LAT1-probe substrate uptake very effectively	–
COc1cc(/C=C/C(=O)Oc2cccc(C[C@H](N)C(=O)O)c2)ccc1O [Compound 7]	0.3 ± 0.1	0.09 ± 0.03	–	inhibited significantly	7.35 ± 3.44	21.14 ± 2.93 nmol/mg of protein	96.8 ± 1.2	13.6 ± 1.8	19.8 ± 1.3	37.6 ± 1.8	62 ± 14	0.21 ± 0.02	–	–	–	–
N[C@@H](Cc1cccc(NC(=O)c2ccccc2O)c1)C(=O)O [Compound 8]	–	–	–	inhibited significantly	2.65 ± 0.6	8.05 ± 0.40 nmol/mg of protein	18.1 ± 1.2	12 ± 1.4	24.5 ± 2	–	41 ± 5	185 ± 10	–	–	not able to inhibit the LAT1-probe substrate uptake very effectively	–
C[C@H](C(=O)Nc1cccc(C[C@H](N)C(=O)O)c1)c1ccc(-c2ccccc2)c(F)c1 [Compound 9]	–	–	–	inhibited significantly	> 300	101.6 ± 86.1 nmol/mg of protein	4.7 ± 1.2	1.7 ± 1.8	15.9 ± 7.8	–	–	–	–	–	–	minor effects on cell viability
C[C@H](C(=O)Oc1cccc(C[C@H](N)C(=O)O)c1)c1ccc(-c2ccccc2)c(F)c1 [Compound 12]	–	–	–	inhibited significantly	19.2 ± 5.71	36.12 ± 4.17 nmol/mg of protein	3 ± 1.5	4.3 ± 1.7	6.3 ± 1.3	–	–	–	started to impact the cell viability	–	–	minor effects on cell viability
COc1ccc2cc([C@H](C)C(=O)Oc3cccc(C[C@H](N)C(=O)O)c3)ccc2c1 [Compound 15]	9.3 ± 2.7	280 ± 65	highest cellular uptake	inhibited significantly	12.5 ± 3.62	29.09 ± 2.84 nmol/mg of protein	3.1 ± 1.3	25.3 ± 1.6	11.1 ± 1.2	–	–	–	started to impact the cell viability	–	–	minor effects on cell viability

From article PMC8746705, “Comparison of Experimental Strategies to Study L-Type Amino Acid Transporter 1 (LAT1) Utilization by Ligands” (Molecules, 2021)
